The target of the experiment is T1, Aromatase (Homo sapiens, UniProt P11511).
T1 sequence (P11511 whole entry): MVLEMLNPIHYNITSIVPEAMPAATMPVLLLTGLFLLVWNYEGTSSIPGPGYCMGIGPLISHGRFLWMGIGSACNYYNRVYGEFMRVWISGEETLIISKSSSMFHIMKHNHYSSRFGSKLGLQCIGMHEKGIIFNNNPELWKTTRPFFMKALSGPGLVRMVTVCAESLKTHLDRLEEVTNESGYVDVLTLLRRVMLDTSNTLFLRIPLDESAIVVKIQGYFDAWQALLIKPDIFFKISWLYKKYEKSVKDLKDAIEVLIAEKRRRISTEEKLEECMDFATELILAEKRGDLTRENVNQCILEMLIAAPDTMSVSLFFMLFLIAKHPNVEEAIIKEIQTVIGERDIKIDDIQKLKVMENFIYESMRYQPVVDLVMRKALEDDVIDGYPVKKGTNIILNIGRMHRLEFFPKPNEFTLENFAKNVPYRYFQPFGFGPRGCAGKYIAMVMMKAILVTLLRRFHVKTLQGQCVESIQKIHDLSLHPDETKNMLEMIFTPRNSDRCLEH

Broadly, the IC50 is the concentration at which inhibition is half-maximal. Low values mean higher potency, high ones lower potency. For `O=C1/C(=C/c2ccncc2)C(c2ccccc2)Oc2ccccc21` (centres undefined), the IC50 is 800 nM. The figure for `COc1ccc2c(c1)OC(c1ccccc1)/C(=C\c1ccncc1)C2=O` (centres undefined) is 620 nM; for `O=C1/C(=C\c2ccncc2)C(c2ccccc2)Oc2ccccc21` (mixture of isomers) it is 3300 nM. Regarding `COc1ccc2c(c1)OC(c1ccccc1)/C(=C/c1ccncc1)C2=O` (mixture of isomers), the IC50 came out at 1600 nM.

These data come from ChEMBL document CHEMBL1135267 (Bioorg Med Chem Lett, 2002).
